# Results: patent US10159640B2, “Prebiotic oral care compositions containing amino acids” (COLGATE-PALMOLIVE COMPANY, priority 2013, dated 2018)
# Tests used:
# Format in all cases: cell-based
# Actinomyces viscosus = assay: Biofilm growth assay in BHI, crystal violet; conditions: control = 1
# Experimental: (§1) The increase in biofilm formation of the tested bacteria in response to selected compounds (Met-Pro, Phe-Glu) was investigated by setting up biofilm growth assays in a nutritionally rich medium (brain heart infusion broth (BHI), Oxoid), over 48 hours. Late exponential growth phase liquid cultures were prepared by transferring the respective bacterium from blood agar plates to BHI and overnight incubation at 37° C. in an anaerobic atmosphere for A. viscosus, V. parvula, F. nucleatum, P. gingivalis, P. intermedia, T. forsythia, A. naeslundii, and C. sputigena, and in a 5% CO2 environment for S. salivarius, S. sanguinis, S. mitis, A. actinomycetemcomitans, S. mutans, and S. gordonii. Overnight cultures were transferred to BHI and adjusted to a concentration of 1×10^7 CFU/ml by measuring the optical density at 600 nm (OD600) (BioRad SmartSpec 3000). For each strain, 200 μl of the bacterial suspension was added to a 96-well plate containing 20 μl of the respective di-peptides. Final concentrations of the di-peptides were set to 5, 10, 20 and 25 μmol/ml. […] Additionally, for each bacterium tested, a background control, to correct for background staining, was added. This background control contained the bacterium tested and 0.03 weight % chlorhexidine, as an antiseptic. Plates were incubated as previously described. After 48 hrs the supernatant was removed from the wells of the plates. The wells were washed twice with 1×100 μL PBS (phosphate buffered saline), fixed for 20 minutes with 96% vol. ethanol (96% vol. solution in water) and the biofilm retained at the bottom of the wells was stained with 1 weight % crystal violet (1 weight % solution in water). The bound dye was dissolved with 5% vol. acetic acid (5% vol. solution in water). Quantification of the stained biofilm was performed by measuring the absorbance at 630 nm using a Multiskan Ascent microplate reader (Thermo Scientific).
# (§2) The experiment was carried out on three different days (thus providing 3 biological replicas) and each day the experiment was carried out in quadruple (thus providing 4 technical replicas) for each combination of bacterium with dipeptide and for each control. For each day and for each combination, the average (mean) of the values obtained (as detailed above) for the four technical replicas was calculated to provide a single value for each combination on each day. The values shown in Tables 7 to 8, below, are the average (mean) of the three single values obtained for each combination of bacterium with dipeptide.
# Prevotella intermedia = assay: Biofilm growth assay in BHI, crystal violet; conditions: control = 1
# Experimental: as §1, §2
# Streptococcus mitis = assay: Biofilm growth assay in BHI, crystal violet; conditions: control = 1
# Experimental: as §1, §2
# Porphyromonas gingivalis = assay: Biofilm growth assay in BHI, crystal violet; conditions: control = 1
# Experimental: as §1, §2
# [1] = tested on: beneficial oral bacteria and pathogenic oral bacteria; assay: Biofilm growth, whole panel: prebiotic effect; conditions: threshold value of 1.6
# Experimental: Substrates that were able to increase the biofilm mass of at least one of the above beneficial bacteria while not or only minimally increasing the biofilm mass of the pathogenic bacteria are considered to be prebiotic compounds.
# as §1, §2
# This value was selected in order to exclude low-stimulating metabolites and avoid false positive results.
# [2] = tested on: beneficial oral bacteria and pathogenic oral bacteria; assay: Metabolic activity, whole panel: prebiotic effect; conditions: threshold value of 2
# In short: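 Biolog phenotype microarrays with dipeptide-preloaded wells; each species suspended in IF-0 with Redox Dye Mix D (85% transmittance) plus succinate/ferric citrate, incubated anaerobically at 37° C. Tetrazolium reduction read at 492 nm at 24 and 48 h versus no-dipeptide controls; values are means of three biological replicates.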
Substance,biofilm growth: OD 630 nm (crystal violet) at 48 hrs divided by OD of control (Actinomyces viscosus; 5 μmol/ml),biofilm growth: OD 630 nm (crystal violet) at 48 hrs divided by OD of control (Actinomyces viscosus; 10 μmol/ml),biofilm growth: OD 630 nm (crystal violet) at 48 hrs divided by OD of control (Actinomyces viscosus; 20 μmol/ml),biofilm growth: OD 630 nm (crystal violet) at 48 hrs divided by OD of control (Actinomyces viscosus; 25 μmol/ml),biofilm growth: OD 630 nm (crystal violet) at 48 hrs divided by OD of control (Prevotella intermedia; 5 μmol/ml),biofilm growth: OD 630 nm (crystal violet) at 48 hrs divided by OD of control (Prevotella intermedia; 10 μmol/ml),biofilm growth: OD 630 nm (crystal violet) at 48 hrs divided by OD of control (Prevotella intermedia; 20 μmol/ml),biofilm growth: OD 630 nm (crystal violet) at 48 hrs divided by OD of control (Prevotella intermedia; 25 μmol/ml),biofilm growth: OD 630 nm (crystal violet) at 48 hrs divided by OD of control (Streptococcus mitis; 5 μmol/ml),biofilm growth: OD 630 nm (crystal violet) at 48 hrs divided by OD of control (Streptococcus mitis; 10 μmol/ml),biofilm growth: OD 630 nm (crystal violet) at 48 hrs divided by OD of control (Streptococcus mitis; 20 μmol/ml),biofilm growth: OD 630 nm (crystal violet) at 48 hrs divided by OD of control (Streptococcus mitis; 25 μmol/ml),biofilm growth: OD 630 nm (crystal violet) at 48 hrs divided by OD of control (Porphyromonas gingivalis; 5 μmol/ml),biofilm growth: OD 630 nm (crystal violet) at 48 hrs divided by OD of control (Porphyromonas gingivalis; 10 μmol/ml),biofilm growth: OD 630 nm (crystal violet) at 48 hrs divided by OD of control (Porphyromonas gingivalis; 20 μmol/ml),biofilm growth: OD 630 nm (crystal violet) at 48 hrs divided by OD of control (Porphyromonas gingivalis; 25 μmol/ml),prebiotic effects (biofilm growth) ([1]; 10 μmol/ml),prebiotic effects (metabolic activity) ([2]; 24 hrs),prebiotic effects (metabolic activity) ([2]; 48 hrs),other results
Met-Pro,0.4286,0.4021,0.1766,0.0355,1.2520,0.9773,0.2095,0.1148,1.3974,1.4008,0.2959,0.0464,0.6831,0.7344,0.8922,0.4990,exhibited prebiotic effects,exhibited prebiotic effects,exhibited prebiotic effects,prebiotic effects (biofilm growth) ([1]; 20 μmol/ml): exhibited prebiotic effects; prebiotic effects (biofilm growth) ([1]; 25 μmol/ml): exhibited prebiotic effects
Phe-Glu,1.3972,1.2242,0.0684,0.0490,0.7904,0.1852,0.2103,0.2516,0.7237,0.0179,0.0264,0.1018,0.7552,0.9004,0.1717,0.3008,exhibited prebiotic effects,exhibited prebiotic effects,exhibited prebiotic effects,prebiotic effects (biofilm growth) ([1]; 5 μmol/ml): exhibited prebiotic effects
